Measured values published in PubChem BioAssay (NCI).
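Dose response: 5 concentrations. Exposure: 48 h. Format: 96-well plates. Endpoint: linear interpolation; highest concentration if not reached. Abbreviation: GI50, concentration required for 50% inhibition of growth. Definition used: TGI = concentration required for complete inhibition of growth.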

Experiments:
Test in all cases: DTP human tumour cell line panel, 48 h
[1] = tested on: MALME-3M melanoma
[2] = tested on: RXF 393 renal
[3] = tested on: HT29 colon
[4] = tested on: HCT-15 colon
[5] = tested on: T-47D breast
[6] = tested on: SN12C renal
[7] = tested on: NCI-H460 lung
[8] = tested on: MDA-MB-435
[9] = tested on: NCI/ADR-RES ovarian
[10] = tested on: MDA-MB-231 breast

Row | Compound | TGI [1] [µM] | TGI [2] [µM] | TGI [3] [µM] | TGI [4] [µM] | TGI [5] [µM] | TGI [6] [µM] | TGI [7] [µM] | GI50 [1] [µM] | GI50 [8] [µM] | TGI [8] [µM] | GI50 [9] [µM] | TGI [9] [µM] | GI50 [2] [µM] | GI50 [4] [µM] | GI50 [7] [µM] | GI50 [5] [µM] | GI50 [6] [µM] | GI50 [10] [µM] | TGI [10] [µM] | GI50 [3] [µM]
1 | CC(=O)c1cccc(NC(=O)C(=O)NNc2n[nH]c(=S)n2N)c1 | 5.18 | 24.1 | 31.8 | 15.9 | 13.6 | 20.3 | 13.3 | – | – | – | – | – | – | – | – | – | – | – | – | –
2 | Cn1c2ccccc2c2c3c(c4c5cc(Br)ccc5n(C)c4c21)C(=O)N(O)C3=O | > 100 | 0.703 | – | > 100 | – | – | 1.08 | 0.494 | 0.319 | > 100 | 0.0926 | > 100 | 0.217 | 0.199 | 0.048 | – | – | – | – | –
3 | Cc1nn(-c2ccccc2)c2nc(N3CCOCC3)nnc12 | > 100 | > 100 | > 100 | > 100 | – | > 100 | > 100 | – | – | – | – | – | – | – | – | – | – | – | – | –
4 | CCCCC(C(=O)C(=O)NC1C2CC3CC(C2)CC1C3)C(=O)C(C)C (centres undefined) | > 100 | > 100 | > 100 | > 100 | – | > 100 | > 100 | – | – | – | – | – | – | – | – | – | – | – | – | –
5 | COc1ccc2c3c([nH]c2c1[N+](=O)[O-])C(C)=NCC3 | – | > 100 | > 100 | > 100 | – | > 100 | > 100 | – | – | – | – | – | – | – | – | – | – | – | – | –
6 | CN1CCN(CCOc2ccc(-c3cnc4c(-c5ccccc5F)cnn4c3)cc2)CC1 | 2.95 | 3.29 | – | 2.63 | 3.93 | 3.6 | 3.05 | 1.56 | 1.7 | 3.1 | 2.4 | 6.42 | 1.72 | 1.25 | 1.63 | 1.38 | 1.78 | 1.54 | 3.08 | –
7 | O=S1(=O)C[C@H](O)[C@H](O)CS1 | > 100 | > 100 | > 100 | – | – | > 100 | > 100 | – | – | – | – | – | – | – | – | – | – | – | – | –
8 | COC(=O)C1=C(O)c2cc(OC)c(OC)cc2C(c2ccc(OC)c(OC)c2)C1 (centres undefined) | > 100 | > 100 | > 100 | > 100 | – | > 100 | > 100 | – | – | – | – | – | – | – | – | – | – | – | – | –
9 | CC(C)N(C(=O)C12C3C4C5(C#N)C3C1(C#N)C5C42I)C(C)C (centres undefined) | > 100 | > 100 | > 100 | > 100 | – | > 100 | > 100 | – | – | – | – | – | – | – | – | – | – | – | – | –
10 | CC(C)(C)CC(C)(C)c1cc2c(O)c(c1)Cc1cc(C(C)(C)CC(C)(C)C)cc(c1O)Cc1cc(C(C)(C)CC(C)(C)C)cc(c1O)Cc1cc(C(C)(C)CC(C)(C)C)cc(c1O)C2 | > 100 | > 100 | > 100 | > 100 | – | > 100 | > 100 | – | – | – | – | – | – | – | – | – | – | – | – | –
11 | CN(C)/C=N/c1nc2c(ncn2C2OC(CO)C(O)C2O)c(=O)[nH]1 (centres undefined) | > 100 | > 100 | > 100 | > 100 | – | > 100 | > 100 | – | – | – | – | – | – | – | – | – | – | – | – | –
12 | C=C1C(=O)O[C@@H]2C[C@@H]1CC/C(C)=C/CC/C(C)=C/CC[C@@]2(C)O | – | 45.6 | > 100 | 51.4 | > 100 | – | 43.2 | – | 5.07 | 18.5 | 9.28 | 24.4 | 19.1 | 18.2 | 16.5 | 34.2 | – | 8.56 | 31.8 | 31
